In brackets after ≈: the same amount, converted by molar mass.
Legend:
[1] = physchem; settings: buffer, pH 7.4, logD
[2] = physchem
[3] = physchem; settings: FaSSIF, pH 6.5
[4] = Solubility of compound in pH 7.4 by charged aerosol detection method; type: physicochemical; settings: buffer
[5] = buffer, pH 7.4
[6] = AUC (0 to infinity) in Wistar Han rat at 1 mg/kg, iv measured up to 24 hrs by LC-MS/MS analysis; type: ADME, organism-based; parameters: route intravenous, dose 1 mg/kg, time <=24; settings: in vivo
[7] = Half life in Wistar Han rat at 1 mg/kg, iv measured up to 24 hrs by LC-MS/MS analysis; type: ADME, organism-based; settings: in vivo
[8] = Clearance in Wistar Han rat at 1 mg/kg, iv measured up to 24 hrs by LC-MS/MS analysis; type: ADME, organism-based; settings: in vivo
[9] = Intrinsic clearance in rat hepatocytes at 0.5 uM measured after 60 mins by LC-MS/MS analysis; type: ADME, cell-based, Hepatocyte; settings: 1 h
[10] = Intrinsic clearance in human hepatocytes at 0.5 uM measured after 120 mins by LC-MS/MS analysis; type: ADME, cell-based, Hepatocyte; settings: 2 h
[11] = Intrinsic clearance in dog hepatocytes at 0.5 uM measured after 120 mins by LC-MS/MS analysis; type: ADME, cell-based, Canis lupus familiaris, Hepatocyte; settings: 2 h
[12] = Volume of distribution at steady state in Wistar Han rat at 1 mg/kg, iv measured up to 24 hrs by LC-MS/MS analysis; type: ADME, organism-based; settings: in vivo, read-out: Vdss
[13] = Cmax in Wistar Han rat at 3 mg/kg, po measured up to 24 hrs by LC-MS/MS analysis; type: ADME, organism-based; parameters: route oral, dose 3 mg/kg, time <=24; settings: in vivo
[14] = Tmax in Wistar Han rat at 3 mg/kg, po measured up to 24 hrs by LC-MS/MS analysis; type: ADME, organism-based; settings: in vivo
[15] = AUC (0 to infinity) in Wistar Han rat at 3 mg/kg, po measured up to 24 hrs by LC-MS/MS analysis; type: ADME, organism-based; parameters: route oral, dose 3 mg/kg, time <=24; settings: in vivo
[16] = Oral bioavailability in Wistar Han rat at 3 mg/kg measured up to 24 hrs by LC-MS/MS analysis; type: ADME, organism-based; settings: in vivo

logD [1]	solubility [2]	SMILES	further results
2.1	–	CNC(=O)CN(CC(c1ccccc1)C1CCOCC1)C(=O)c1cc(C)c(=O)n(C)c1 (configuration not stated)	–
5.4	> 206 µg/mL	Cc1cc(C(=O)N(CC(c2ccccc2)c2ccccc2)C(C)CN2CCOCC2)cn(C)c1=O (configuration not stated)	solubility at 16 h [3]: 91 µg/mL (≈ 192 µM)
1.7	–	CNC(=O)C(C)N(CC(c1ccccc1)c1ccncc1)C(=O)c1cc(C)c(=O)n(C)c1 (configuration not stated)	–
3.6	> 142 µg/mL	CNC(=O)C(C1COC1)N(CC(c1ccccc1)c1ccccc1)C(=O)c1cc(C)c(=O)n(C)c1 (configuration not stated)	–
4.9	105 µg/mL (≈ 228 µM)	CNC(=O)C(C(C)C)N(CC(c1ccccc1)c1ccccc1)C(=O)c1cc(C)c(=O)n(C)c1 (configuration not stated)	solubility at 16 h [3]: 60 µg/mL (≈ 131 µM)
2.8	–	CNC(=O)[C@H](C1CCOCC1)N(CC(c1ccccc1)c1ccccn1)C(=O)c1cc(C)c(=O)n(C)c1 (stereo in doubt; 62)	–
2.4	–	CNC(=O)CN(CC(CC1CCOCC1)c1ccccc1)C(=O)c1cc(C)c(=O)n(C)c1 (configuration not stated)	–
–	–	CNC(=O)C(C1CCOC1)N(CC(c1ccccc1)c1ccccc1)C(=O)c1cc(C)c(=O)n(C)c1 (stereo in doubt; 24)	solubility [4]: > 153 µg/mL
–	–	CNC(=O)C(C)N(CC(c1ccccc1)c1ccccn1)C(=O)c1cc(C)c(=O)n(C)c1 (stereo in doubt; 51)	logD [5]: 2.1
2.7	–	CCOC(CN(CC(=O)NC)C(=O)c1cc(C)c(=O)n(C)c1)c1ccccc1 (configuration not stated)	–
–	–	CNC(=O)C(C1CCOC1)N(CC(c1ccccc1)c1ccccc1)C(=O)c1cc(C)c(=O)n(C)c1 (stereo in doubt; 21)	solubility [4]: > 143 µg/mL; solubility at 16 h [3]: 987 µg/mL (≈ 2020 µM)
4.1	> 239 µg/mL	Cc1cc(C(=O)N(CCN2CCOCC2)CC(c2ccccc2)c2ccccc2)cn(C)c1=O	–
3.7	> 242 µg/mL	CNC(=O)C(C)(C)N(CC(c1ccccc1)c1ccccc1)C(=O)c1cc(C)c(=O)n(C)c1	–
2.9	> 175 µg/mL	Cc1cc(C(=O)N(CC(N)=O)CC(c2ccccc2)c2ccccc2)cn(C)c1=O	–
4.1	–	CNC(=O)C(C)N(CC(c1ccccc1)c1ccccc1)C(=O)c1cn(C)c(=O)c(C)n1 (configuration not stated)	solubility ([4]; read-out: solubility): > 102 µg/mL
2.8	–	CCC(CN(CC(=O)NC)C(=O)c1cc(C)c(=O)n(C)c1)c1ccccc1 (configuration not stated)	–
4.9	> 150 µg/mL	CNC(=O)C1(N(CC(c2ccccc2)c2ccccc2)C(=O)c2cc(C)c(=O)n(C)c2)CCC1	–
1.45	–	CNC(=O)CN(CC(c1ccccc1)n1ccnc1)C(=O)c1cc(C)c(=O)n(C)c1 (configuration not stated)	–
–	> 211 µg/mL	CNC(=O)[C@@H](C)N(CC(c1ccccc1)c1ccccc1)C(=O)c1cc(C)c(=O)n(C)c1	–
–	–	CNC(=O)C(C1CCOC1)N(CC(c1ccccc1)c1ccccc1)C(=O)c1cc(C)c(=O)n(C)c1 (stereo in doubt; 23)	solubility [4]: > 181 µg/mL
4.3	–	CCNC(=O)C(C)N(CC(c1ccccc1)c1ccccc1)C(=O)c1cc(C)c(=O)n(C)c1 (configuration not stated)	–
3.7	213 µg/mL (≈ 494 µM)	CNC(=O)C(C)N(CC(c1ccccc1)c1ccccc1)C(=O)c1cc(C)c(=O)n(C)c1 (configuration not stated)	–
1.9	–	CNC(=O)C(C)N(CC(c1ccccc1)c1cccnc1)C(=O)c1cc(C)c(=O)n(C)c1 (configuration not stated)	–
3.7	> 169 µg/mL	CCNC(=O)C(C)N(CC(c1ccccc1)c1ccccc1)C(=O)c1ccc(=O)n(C)c1 (configuration not stated)	–
3.4	163 µg/mL (≈ 390 µM)	CNC(=O)CN(CC(c1ccccc1)c1ccccc1)C(=O)c1cc(C)c(=O)n(C)c1	–

logD [1]	solubility [2]	SMILES	further results
–	–	CNC(=O)C(C)N(CC(c1ccccc1)c1ccccn1)C(=O)c1cc(C)c(=O)n(C)c1 (stereo in doubt; 57)	logD [5]: 2.6
5.7	114 µg/mL (≈ 265 µM)	CNC(=O)CN(CC(c1ccccc1)c1ccccc1)C(=O)c1cc(C)c(OC)c(C)c1	–
–	–	CNC(=O)[C@@H](C1CCOCC1)N(CC(c1ccccc1)c1ccccn1)C(=O)c1cc(C)c(=O)n(C)c1 (stereo in doubt; 63)	logD [5]: 2.9
2.8	–	CNC(=O)[C@@H](C1CCOCC1)N(CC(c1ccccc1)c1ccccn1)C(=O)c1cc(C)c(=O)n(C)c1 (stereo in doubt; 61)	–
4.4	91 µg/mL (≈ 199 µM)	CNC(=O)C(C1CC1)N(CC(c1ccccc1)c1ccccc1)C(=O)c1cc(C)c(=O)n(C)c1 (configuration not stated)	solubility at 16 h [3]: 30 µg/mL (≈ 65.6 µM)
2.9	–	CNC(=O)C(C)N(CC(O)(c1ccccc1)c1ccccc1)C(=O)c1cc(C)c(=O)n(C)c1 (configuration not stated)	–
5.5	> 186 µg/mL	COCC(COC)N(CC(c1ccccc1)c1ccccc1)C(=O)c1cc(C)c(=O)n(C)c1	solubility at 16 h [3]: 78 µg/mL (≈ 174 µM)
4.8	> 157 µg/mL	Cc1cc(C(=O)N(CC(c2ccccc2)c2ccccc2)C(C)C#N)cn(C)c1=O (configuration not stated)	solubility at 16 h [3]: 13 µg/mL (≈ 32.5 µM)
–	–	CNC(=O)C(C)N(CC(c1ccccc1)c1ccccn1)C(=O)c1cc(C)c(=O)n(C)c1 (stereo in doubt; 56)	logD [5]: 2.7
4.7	–	CNC(=O)C1(N(CC(c2ccccc2)c2ccccc2)C(=O)c2cc(C)c(=O)n(C)c2)CCCC1	solubility at 16 h [3]: 132 µg/mL (≈ 280 µM)
–	–	CNC(=O)[C@H](C1CCOCC1)N(CC(c1ccccc1)c1ccccn1)C(=O)c1cc(C)c(=O)n(C)c1 (stereo in doubt)	AUC(0-inf) [6]: 340 ng·h/mL; half-life [7]: 11.4 min; clearance [8]: 50 mL/min/kg; solubility ([4]; read-out: solubility): > 231 µg/mL; CLH [9]: 3.13 mL/min/g; CLH [10]: < 0.45 mL/min/g; CLH [11]: < 0.65 mL/min/g; Vd [12]: 0.6 L/kg; Cmax [13]: 398 nM; Tmax [14]: 15 min; AUC(0-inf) [15]: 162 ng·h/mL; bioavailability [16]: 16%; logD [5]: 2.9; solubility at 16 h [3]: > 1000 µg/mL
4.3	–	CCC(C(=O)NC)N(CC(c1ccccc1)c1ccccc1)C(=O)c1cc(C)c(=O)n(C)c1 (configuration not stated)	solubility at 16 h [3]: 150 µg/mL (≈ 337 µM)
2.3	–	CNC(=O)C(C)N(CC(c1ccccc1)c1ccccn1)C(=O)c1cc(C)c(=O)n(C)c1 (stereo in doubt; 50)	–
3.3	–	CNC(=O)CN(CC(c1ccccc1)C(C)C)C(=O)c1cc(C)c(=O)n(C)c1 (configuration not stated)	–
4	–	CNC(=O)C(C1CCOC1)N(CC(c1ccccc1)c1ccccc1)C(=O)c1cc(C)c(=O)n(C)c1 (racemic)	solubility ([4]; read-out: solubility): > 138 µg/mL
2.2	–	CNC(=O)CN(CC(C)c1ccccc1)C(=O)c1cc(C)c(=O)n(C)c1 (configuration not stated)	–
3.6	> 170 µg/mL	CCNC(=O)C(C)N(CC(c1ccccc1)c1ccccc1)C(=O)c1c[nH]c(=O)c(C)c1 (configuration not stated)	–
–	> 163 µg/mL	CNC(=O)[C@H](C)N(CC(c1ccccc1)c1ccccc1)C(=O)c1cc(C)c(=O)n(C)c1	–
3.9	–	CCNC(=O)C(C)N(CC(c1ccccc1)c1ccccc1)C(=O)C1CCC(=O)N(C)C1 (configuration not stated)	–
4.9	161 µg/mL (≈ 341 µM)	CNC(=O)C(C1CCC1)N(CC(c1ccccc1)c1ccccc1)C(=O)c1cc(C)c(=O)n(C)c1 (configuration not stated)	–
3.3	111 µg/mL (≈ 248 µM)	CNC(=O)C(C)N(CC(c1ccccc1)c1ccccc1)C(=O)c1cc(OC)c(=O)n(C)c1 (configuration not stated)	solubility at 16 h [3]: 661 µg/mL (≈ 1480 µM)
–	–	CNC(=O)C(C1CCOC1)N(CC(c1ccccc1)c1ccccc1)C(=O)c1cc(C)c(=O)n(C)c1 (stereo in doubt; 22)	solubility [4]: > 185 µg/mL
5.1	108 µg/mL (≈ 243 µM)	Cc1cc(C(=O)N(CC(c2ccccc2)c2ccccc2)C(C)C2CCCO2)cn(C)c1=O (configuration not stated)	solubility at 16 h [3]: 21 µg/mL (≈ 47.2 µM)
5.4	93 µg/mL (≈ 196 µM)	CNC(=O)C(N(CC(c1ccccc1)c1ccccc1)C(=O)c1cc(C)c(=O)n(C)c1)C(C)(C)C (configuration not stated)	solubility at 16 h [3]: 2 µg/mL (≈ 4.22 µM)
4.4	> 194 µg/mL	CNC(=O)C1(N(CC(c2ccccc2)c2ccccc2)C(=O)c2cc(C)c(=O)n(C)c2)CC1	solubility at 16 h [3]: 819 µg/mL (≈ 1850 µM)

Reference: ChEMBL document CHEMBL4825709 (J Med Chem, 2021)
